Tests used:
NaV1.2[F385C] = NaV1.2[F385C] (Rattus norvegicus, UniProt P04775, F385C); details: cited from earlier work
NaV1.2 = NaV1.2 (Rattus norvegicus, UniProt P04775)
Chain of NaV1.2 (P04775 whole entry, looked up): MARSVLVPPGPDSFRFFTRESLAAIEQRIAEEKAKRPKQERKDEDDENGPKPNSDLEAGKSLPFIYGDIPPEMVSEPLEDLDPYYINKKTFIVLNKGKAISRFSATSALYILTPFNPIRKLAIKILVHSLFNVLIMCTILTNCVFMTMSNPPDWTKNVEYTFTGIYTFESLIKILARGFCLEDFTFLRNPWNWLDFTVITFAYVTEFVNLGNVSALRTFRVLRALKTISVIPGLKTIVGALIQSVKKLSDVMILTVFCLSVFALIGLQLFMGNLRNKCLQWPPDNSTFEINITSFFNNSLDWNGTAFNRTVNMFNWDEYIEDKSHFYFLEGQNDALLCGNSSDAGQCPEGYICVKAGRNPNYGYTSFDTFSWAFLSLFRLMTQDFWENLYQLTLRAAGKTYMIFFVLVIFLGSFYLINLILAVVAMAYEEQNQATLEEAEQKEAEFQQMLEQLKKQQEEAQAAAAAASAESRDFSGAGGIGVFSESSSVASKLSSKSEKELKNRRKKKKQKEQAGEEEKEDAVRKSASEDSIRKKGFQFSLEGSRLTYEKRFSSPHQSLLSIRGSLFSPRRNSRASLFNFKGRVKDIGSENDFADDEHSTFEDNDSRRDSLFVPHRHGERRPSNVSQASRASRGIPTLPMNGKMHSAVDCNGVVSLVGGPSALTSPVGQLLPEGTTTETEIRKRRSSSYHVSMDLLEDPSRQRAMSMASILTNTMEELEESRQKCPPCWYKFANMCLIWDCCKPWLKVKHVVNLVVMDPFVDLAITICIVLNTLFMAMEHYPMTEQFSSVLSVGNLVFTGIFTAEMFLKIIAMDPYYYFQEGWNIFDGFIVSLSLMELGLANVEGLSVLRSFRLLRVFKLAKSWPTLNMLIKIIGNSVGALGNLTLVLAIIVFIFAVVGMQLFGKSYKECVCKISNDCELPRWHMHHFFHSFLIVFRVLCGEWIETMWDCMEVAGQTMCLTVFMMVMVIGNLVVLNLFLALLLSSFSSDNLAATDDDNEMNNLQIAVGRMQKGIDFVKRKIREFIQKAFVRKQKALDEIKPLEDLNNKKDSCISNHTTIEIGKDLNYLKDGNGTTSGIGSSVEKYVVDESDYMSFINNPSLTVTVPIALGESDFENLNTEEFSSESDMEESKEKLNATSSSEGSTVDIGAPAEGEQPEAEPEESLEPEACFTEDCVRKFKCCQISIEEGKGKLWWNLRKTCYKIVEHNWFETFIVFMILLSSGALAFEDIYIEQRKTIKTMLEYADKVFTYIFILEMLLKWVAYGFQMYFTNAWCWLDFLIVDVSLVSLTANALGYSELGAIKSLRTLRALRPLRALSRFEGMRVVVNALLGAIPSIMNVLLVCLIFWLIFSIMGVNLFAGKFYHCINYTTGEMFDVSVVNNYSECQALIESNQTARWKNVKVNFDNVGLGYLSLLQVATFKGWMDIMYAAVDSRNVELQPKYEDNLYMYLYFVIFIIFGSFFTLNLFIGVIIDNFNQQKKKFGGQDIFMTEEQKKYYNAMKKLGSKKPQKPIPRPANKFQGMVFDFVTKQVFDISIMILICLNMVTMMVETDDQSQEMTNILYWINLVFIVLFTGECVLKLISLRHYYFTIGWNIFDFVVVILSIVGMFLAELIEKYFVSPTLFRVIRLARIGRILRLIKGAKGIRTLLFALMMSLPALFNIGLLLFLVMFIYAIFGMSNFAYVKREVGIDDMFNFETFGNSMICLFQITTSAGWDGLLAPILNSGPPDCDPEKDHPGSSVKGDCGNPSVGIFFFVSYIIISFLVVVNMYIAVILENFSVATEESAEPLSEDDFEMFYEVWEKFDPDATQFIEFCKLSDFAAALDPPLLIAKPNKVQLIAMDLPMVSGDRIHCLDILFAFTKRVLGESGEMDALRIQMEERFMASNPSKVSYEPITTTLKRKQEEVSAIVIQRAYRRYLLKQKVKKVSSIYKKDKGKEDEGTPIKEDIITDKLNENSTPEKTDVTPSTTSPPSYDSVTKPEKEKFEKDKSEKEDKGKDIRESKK

Chain of NaV1.2[F385C] (P04775 whole entry F385C, looked up): as the sequence (P04775 whole entry, looked up) above, with F385C counted along it

NC1=N[C@H](O)[C@H]2[C@H]3O[C@]4(O)O[C@@H]([C@@H](O)[C@@]2(N1)[C@@H]4O)[C@]3(O)CO [TTX, Tetrodotoxin]
sensitivity of NaV1.2[F385C] (NaV1.2[F385C]): insensitive | Plateau of block at saturating [toxin] (Langmuir fit) (NaV1.2): 100%
